Data on 48 compounds can be found in patent publication US20200405715A1, “COMPOSITIONS AND METHODS FOR TREATING CANCER AND INFLAMMATORY DISEASES” (University of Pittsburgh - Of the Commonwealth System of …, priority 2016, published 2020).

pIC50: −log10 of the molar value.

In one experiment the test system is Nedd8-cullin. Kind of experiment: Cullin neddylation, protein immunoblotting in HepG2 cells. The note with it: 48 h at 10 uM (FIG. 2). It counts as cell-based. The source says: Cells were then collected and assayed for protein immunoblotting. […]
DCN1 protein is believed to harbor a UBC12 binding pocket. Scott et al, Cell 757:1671-84 (2014). […] Scott et al. (2014). The N-terminal acetylation acts as an avidity enhancer within an interconnected multiprotein complex. Science, 554:674-8 (2011). Specifically, n-terminal of UBC12 is acetylated (FIG. 1A, yellow) and completely buried inside the hydrophobic pocket within DCN1 (4gao.PDB, FIG. 1B). Small molecule inhibition of the DCN1 hydrophobic pocket would presumably disrupt UBC12 binding, and thus disrupt Neddylation of Cullin protein. Potential ligands were assessed that might fit the DCN1 domain cavities (FIG. 1B). 3-(pentylamino)-5-phenylcyclohex-2-en-1-one was selected for future testing (FIG. 1C). […] MLN4924 was used as a positive control.
For orientation: Immunoblotting shows a protein as a band on a membrane.
As to `CCCCCNC1=CC(=O)CC(c2ccccc2)C1` (stereo not drawn) [3-(pentylamino)-5-phenylcyclohex-2-en-1-one], the “reducing cullin1 neddylation” value is on record as “good activity”.

A further experiment deals with HepG2 tumor implants. Kind of experiment: HepG2 tumor implants in nude mice, tumor growth. It counts as in vivo, athymic nude mice. As to conditions: compounds in drinking water (15 mg/kg/d), start at tumor size 0.1 cm^3 (FIG. 8). On the procedure: Mice were implanted with HepG2 cells (10^6 cells) through subcutaneous injection. 2 weeks later, once tumor size reaches ˜0.1 cm^3, mice were randomized and the treatment began by adding compounds to the drinking water ([…]). Tested compounds were: Vehicle, 3-(decylamino)-5-phenylcyclohex-2-en-1-one (BC1558), 3-(dibenzylamino)-5-phenylcyclohex-2-en-1-one (BC1634) or 3-((4-phenoxybenzyl)amino)-5-phenylcyclohex-2-en-1-one (BC1653). Tumor volume measurements over time were graphed (n=4-5 mice/group, *P<0.05 versus Vehicle).
As a complementary in vivo model, tumorogenicity was further assessed after implanting HepG2 cells along with 3-(decylamino)-5-phenylcyclohex-2-en-1-one, 3-(dibenzylamino)-5-phenylcyclohex-2-en-1-one, 3-((4-phenoxybenzyl)amino)-5-phenylcyclohex-2-en-1-one treatment in athymic nude mice. Mice were implanted with HepG2 cells through subcutaneous injection. Two weeks later, once tumor size reached 0.1 cm^3, the mice were randomized and the treatment began by adding compounds to the drinking water (15 mg/kg/d).
`O=C1C=C(NCc2ccc(Oc3ccccc3)cc2)CC(c2ccccc2)C1` (stereo not drawn) [BC1653, 3-((4-phenoxybenzyl)amino)-5-phenylcyclohex-2-en-1-one]: the “tumor size compared to the vehicle” value was “Significantly reduced tumor size”. The same measure, in the same setting: the same measure for `O=C1C=C(N(Cc2ccccc2)Cc2ccccc2)CC(c2ccccc2)C1` (stereo not drawn) [BC1634, 3-(dibenzylamino)-5-phenylcyclohex-2-en-1-one]: “Significantly reduced tumor size”.

Another experiment has as its system DSS induced colonic inflammation. Kind of experiment: DSS induced colitis model. It counts as in vivo, C57BL6 mice. The note with it: DSS in water, compounds in drinking water at 10 mg/kg/d (FIG. 12A-B). How it is done:
FIGS. 12A-12D show DCN1 inhibitors reduce DSS induced colonic inflammation, specifically the following experimental results C57BL6 mice were fed with water ad lib containing 3% dextran sulfate sodium (DSS) for six days. DCN1 inhibitors were administered into drinking water at 10 mg/kg/d, starting at day 1. […] The data represent n=4 mice/group, *P<0.05 versus CON.
Also tested were 3-(decylamino)-5-phenylcyclohex-2-en-1-one (BC1558), 3-(dibenzylamino)-5-phenylcyclohex-2-en-1-one (BC1634) and 3-((4-phenoxybenzyl)amino)-5-phenylcyclohex-2-en-1-one (BC1653) in a mouse colitis model to confirm its anti-inflammatory activity. Briefly, C57BL6 mice were fed with water containing 3.5% […] and colonic length was measured. DSS produced a significant decrease in colon length in mice, consistent with colonic inflammation (FIG. 12A-B). […] Colonic tissue cytokine levels were further analyzed.
With `O=C1C=C(NCc2ccc(Oc3ccccc3)cc2)CC(c2ccccc2)C1` (stereo not drawn) [BC1653, 3-((4-phenoxybenzyl)amino)-5-phenylcyclohex-2-en-1-one], the “colon length compared vehicle” value is reported as “significant increase”.

The same experiment, now with this note: DSS in water, compounds in drinking water at 10 mg/kg/d (FIG. 12C-D).
`O=C1C=C(NCc2ccc(Oc3ccccc3)cc2)CC(c2ccccc2)C1` (stereo not drawn) [BC1653, 3-((4-phenoxybenzyl)amino)-5-phenylcyclohex-2-en-1-one]: the “IL1β and IL6 levels in colonic tissue compared to vehicle” value is recorded as “large reduction”.

The next experiment relates to HepG2 cells. Kind of experiment: HepG2 cell proliferation (CellTiter-Glo Luminescent Cell Viability Assay). The note with it: Homo sapiens, 96 h, ATP production, n=3, read-out: IC50Proliferation. It counts as cell-based. How it is done:
Cell proliferation were then measured by CellTiter-Glo® Luminescent Cell Viability Assay (n=3).
4KHepG2 cells were seeded in 96 well plates for overnight. Compounds listed in Table 3 were then added to each well at various concentrations. 96 h later, cell proliferation was measured by ATP production using a CellTiter-Glo® Luminescent Cell Viability Assay (Promega).
3-(pentylamino)-5-phenylcyclohex-2-en-1-one was modified by adding a different sidechain. These novel compounds were tested further in an in vitro proliferation assay using ATPLite Cell Proliferation kit. […] Others lost activity in reducing Cullin Neddylation and inhibiting cell proliferation (FIG. 3C-D).
(In ATP-based viability assays light output follows the ATP content of the culture.)
Consider `O=C1C=C(NCC2CCCCC2)CC(c2ccccc2)C1` (stereo not drawn) [BC1633], for which the pIC50 is under 5.00. With `CCC(C)NC1=CC(=O)CC(c2ccccc2)C1` (stereo not drawn) [BC1546], the pIC50 is under 5.00. With `O=C1C=C(NCc2ccc(OC3CCCC3)cc2)CC(c2ccccc2)C1` (stereo not drawn) [BC1666], the pIC50 was over 6.00. Take `CCCCCCCCNC1=CC(=O)CC(c2ccccc2)C1` (stereo not drawn) [BC1554]: the pIC50 is over 6.00. Same read-out and setting: the result for `COc1ccc(Oc2ccc(CNC3=CC(=O)CC(c4ccccc4)C3)cc2)cc1` (stereo not drawn) [BC1660] reads 5.00 to 6.00; that for `CCCCCCCCCNC1=CC(=O)CC(c2ccccc2)C1` (stereo not drawn) [BC1556], over 6.00. With `Cc1ccccc1-c1cccc(CNC2=CC(=O)CC(c3ccc4c(c3)OCO4)C2)c1` (stereo not drawn) [BC1641], the pIC50 is under 5.00. Still for that read-out and setting: the same measure for `O=C1C=C(NC23CC4C[C@H](C2)C[C@@H](C4)C3)CC(c2ccccc2)C1` (stereo partly drawn) [BC1549]: under 5.00. For `O=C1C=C(NCc2nc3ccccc3[nH]2)CC(c2ccccc2)C1` (stereo not drawn) [BC1658], the pIC50 is under 5.00. In the case of `O=C1C=C(NCc2cnc(Nc3ccccc3)nc2)CC(c2ccccc2)C1` (stereo not drawn) [BC1656], the pIC50 is under 5.00. `CN1CCC(c2ccc(CNC3=CC(=O)CC(c4ccccc4)C3)cc2)CC1` (stereo not drawn) [BC1664]: the pIC50 was under 5.00. Turning to `CC1CC(C)CN(Cc2ccc(CNC3=CC(=O)CC(c4ccccc4)C3)cc2)C1` (stereo not drawn) [BC1667], the pIC50 was under 5.00. On to `CC(C)CCNC1=CC(=O)CC(c2ccccc2)C1` (stereo not drawn) [BC1532], for which the pIC50 is 5.00 to 6.00. The same measure, in the same setting: the same measure for `O=C1C=C(NCc2ccc(CN3CCOCC3)cc2)CC(c2ccccc2)C1` (stereo not drawn) [BC1668]: 5.00 to 6.00; for `CCCCCCCNC1=CC(=O)CC(c2ccccc2)C1` (stereo not drawn) [BC1552]: over 6.00. As for `O=C1C=C(NCc2ccc3oc4ccccc4c3c2)CC(c2ccccc2)C1` (stereo not drawn) [BC1670], the pIC50 was 5.00 to 6.00. Still for that read-out and setting: the result for `O=C1C=C(NCc2cccc(Oc3ccccc3)c2)CC(c2ccccc2)C1` (stereo not drawn) [BC1651] reads over 6.00; that for `O=C1C=C(NCCc2ccccc2)CC(c2ccccc2)C1` (stereo not drawn) [BC1535], 5.00 to 6.00.

As to `O=C1C=C(Nc2cnc(-c3ccccc3)nc2)CC(c2ccccc2)C1` (stereo not drawn) [BC1655], the pIC50 is under 5.00.

Consider `O=C1C=C(NCc2cnc(-c3ccccc3)nc2)CC(c2ccccc2)C1` (stereo not drawn) [BC1657], for which the pIC50 was 5.00 to 6.00. With `O=C1C=C(NC2C[C@@H]3CCC2C3)CC(c2ccccc2)C1` (stereo partly drawn) [BC1550], the pIC50 is 5.00 to 6.00. With `Cc1cccc(N2CCC(NC3=CC(=O)CC(c4ccccc4)C3)CC2)c1` (stereo not drawn) [BC1654], the pIC50 is under 5.00. Regarding `O=C1C=C(NCc2cccc(-c3ncccn3)c2)CC(c2ccccc2)C1` (stereo not drawn) [BC1650], the pIC50 was 5.00 to 6.00. Still for that read-out and setting: the result for `O=C1C=C(NC2CCCCCCCCCCC2)CC(c2ccccc2)C1` (stereo not drawn) [BC1623] reads under 5.00. On the same count and under the same terms, the same measure for `CCCCCCCCCCCCCCCCNC1=CC(=O)CC(c2ccccc2)C1` (stereo not drawn) [BC1564]: under 5.00. Turning to `Cc1ccccc1-c1cccc(CNC2=CC(=O)CC(c3ccccc3)C2)c1` (stereo not drawn) [BC1640], the pIC50 is 5.00 to 6.00.

With `CCCCCCCCCCNC1=CC(=O)CC(c2ccc3c(c2)OCO3)C1` (stereo not drawn) [BC1644], the pIC50 is under 5.00.

For `O=C1C=C(NCc2ccc(-c3ccccc3)cc2)CC(c2ccccc2)C1` (stereo not drawn) [BC1629], the pIC50 was over 6.00. With `O=C1C=C(NCc2ccc(OC3CCCCC3)cc2)CC(c2ccccc2)C1` (stereo not drawn) [BC1663], the pIC50 was over 6.00. In the case of `O=C1C=C(NCc2ccc(Oc3ccccc3)cc2)CC(c2ccccc2)C1` (stereo not drawn) [BC1653, 3-((4-phenoxybenzyl)amino)-5-phenylcyclohex-2-en-1-one], the pIC50 is over 6.00.

Take `CCCCCCCCCCNC1=CC(=O)CC(c2ccco2)C1` (stereo not drawn) [BC1646]: the pIC50 was over 6.00.

Take `CCCCCCCCCCCCNC1=CC(=O)CC(c2ccccc2)C1` (stereo not drawn) [BC1562]: the pIC50 was over 6.00.

`CC(NC1=CC(=O)CC(c2ccccc2)C1)c1ccc(Oc2ccccc2)cc1` (stereo not drawn) [BC1661]: the pIC50 was under 5.00.

With `O=C1C=C(NC2CCC2)CC(c2ccccc2)C1` (stereo not drawn) [BC1625], the pIC50 was under 5.00.

As to `CCCCCCCCCCCNC1=CC(=O)CC(c2ccccc2)C1` (stereo not drawn) [BC1560], the pIC50 was over 6.00. For the compound `O=C1C=C(NCc2ccc3[nH]c4ccccc4c3c2)CC(c2ccccc2)C1` (stereo not drawn) [BC1659], the pIC50 is over 6.00.

`O=C1C=C(NCc2cccc(-c3ccccc3)c2)CC(c2ccccc2)C1` (stereo not drawn) [BC1631]: the pIC50 is over 6.00. As for `O=C1C=C(NCc2ccccc2)CC(c2ccccc2)C1` (stereo not drawn) [BC1548], the pIC50 is 5.00 to 6.00. With `CC1(C)C2C[C@@H]1CCC2CNC1=CC(=O)CC(c2ccccc2)C1` (stereo partly drawn) [BC1627], the pIC50 was 5.00 to 6.00.

As to `CCCCCNC1=CC(=O)CC(c2ccccc2)C1` (stereo not drawn) [BC1526], the pIC50 is 5.00 to 6.00. On the same count and under the same terms, the same measure for `O=C1C=C(NC(c2ccccc2)c2ccccc2)CC(c2ccccc2)C1` (stereo not drawn) [BC1621]: under 5.00; for `COc1cc(CNC2=CC(=O)CC(c3ccccc3)C2)ccc1OC1CCCC1` (stereo not drawn) [BC1669]: over 6.00; for `O=C1C=C(NC2CCCCC2)CC(c2ccccc2)C1` (stereo not drawn) [BC1534]: under 5.00. As for `O=C1C=C(NCc2ccc(CN3CCCCC3)cc2)CC(c2ccccc2)C1` (stereo not drawn) [BC1665], the pIC50 is under 5.00. As for `O=C1C=C(NCc2ccc(Oc3ccc(F)cc3)cc2)CC(c2ccccc2)C1` (stereo not drawn) [BC1662], the pIC50 is over 6.00. The same measure, in the same setting: the same measure for `CCCCCCCCCCNC1=CC(=O)CC(c2ccc(F)cc2)C1` (stereo not drawn) [BC1648]: 5.00 to 6.00.
